Data taken from PubChem BioAssay (NCI).
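All cell lines were grown in 96-well plates and treated with compound for 48 hours. Here, GI50 denotes the concentration required for 50% inhibition of growth. TGI denotes the concentration required for complete inhibition of growth.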

Tests used:
Experiment in all cases: growth of human tumour cells (NCI), 48 h
OVCAR-4 ovarian = system: OVCAR-4 ovarian
HCC-2998 colon = system: HCC-2998 colon
SK-OV-3 ovarian = system: SK-OV-3 ovarian
ACHN renal = system: ACHN renal
BT-549 breast = system: BT-549 breast
OVCAR-3 ovarian = system: OVCAR-3 ovarian
NCI-H522 lung = system: NCI-H522 lung
CCRF-CEM leukemia = system: CCRF-CEM leukemia
OVCAR-5 ovarian = system: OVCAR-5 ovarian
NCI/ADR-RES ovarian = system: NCI/ADR-RES ovarian
TK-10 renal = system: TK-10 renal
MDA-MB-435 = system: MDA-MB-435
MOLT-4 leukemia = system: MOLT-4 leukemia
SK-MEL-28 melanoma = system: SK-MEL-28 melanoma
M14 melanoma = system: M14 melanoma
SF-295 CNS = system: SF-295 CNS
UACC-257 melanoma = system: UACC-257 melanoma

Row | SMILES | TGI (OVCAR-4 ovarian) [µM] | TGI (HCC-2998 colon) [µM] | TGI (SK-OV-3 ovarian) [µM] | TGI (ACHN renal) [µM] | TGI (BT-549 breast) [µM] | TGI (OVCAR-3 ovarian) [µM] | TGI (NCI-H522 lung) [µM] | TGI (CCRF-CEM leukemia) [µM] | TGI (OVCAR-5 ovarian) [µM] | TGI (NCI/ADR-RES ovarian) [µM] | TGI (TK-10 renal) [µM] | TGI (MDA-MB-435) [µM] | TGI (MOLT-4 leukemia) [µM] | TGI (SK-MEL-28 melanoma) [µM] | TGI (M14 melanoma) [µM] | TGI (SF-295 CNS) [µM] | TGI (UACC-257 melanoma) [µM] | GI50 (ACHN renal) [µM] | GI50 (CCRF-CEM leukemia) [µM] | GI50 (SF-295 CNS) [µM]
1 | COc1ccc(NC2CC(C)N(C(=O)c3ccccc3)O2)cc1 (stereo not drawn) | > 10 | > 10 | > 10 | > 10 | > 10 | > 10 | > 10 | > 10 | > 10 | > 10 | > 10 | > 10 | > 10 | > 10 | > 10 | > 10 | > 10 |  |  | 
2 | Nc1nc(N)c2nc(CNc3ccc(C(=O)NC(CCCCNC(=O)c4ccccc4C(=O)O)C(=O)O)cc3)cnc2n1 (stereo not drawn) | > 100 | > 100 | > 100 | > 100 | > 100 | > 100 | > 100 | > 100 | > 100 | > 100 | > 100 | > 31.6 | > 100 | > 100 | > 100 | > 100 | > 100 | 0.00519 | 0.00306 | 0.0191
3 | Cc1cc(-c2nc3cccc(F)c3s2)ccc1N | > 100 | > 100 | > 100 | > 100 | > 100 | > 100 | > 100 | 80.5 | > 100 | > 100 | > 100 | > 100 | > 96.1 | > 100 | > 100 | > 100 | > 100 |  |  | 
4 | C=C(C)C12CC3CC/C(=N/O)C(C1)C3(N1CCOCC1)C/C2=N/O (stereo not drawn) | > 100 | > 100 | > 100 | > 100 | > 100 | > 100 | > 100 | > 100 | > 100 | > 100 | > 100 | > 100 | > 100 | > 100 | > 100 | > 100 | > 100 |  |  | 
5 | COc1ccc(N2C(=O)CC(c3c[nH]c4ncccc34)C2=O)cc1 (stereo not drawn) | 47 | > 100 | > 100 | 43.6 | 37.2 | 36.2 | 24.2 | 16.8 | > 100 | > 79.1 | 19.5 | 19.4 | > 41 | > 58.3 | 44.9 | > 100 | 38.5 |  |  | 
6 | COC(=O)c1ccc(NCc2cc(O)ccc2O)cc1 | 30.5 | 29.5 | 48.8 | 24 | 2.63 | 27.6 | 2.06 | 10.8 | 29.1 | 36.9 | 31.6 | 17.3 | 31.5 | 34.8 | 39.5 | 35 | 29.2 |  |  | 
7 | C[C@]12CC[C@H](O)CC1=CC[C@@H]1C2CC[C@]2(C)Nc3c(cnn3-c3ccc(F)cc3)CC12 (stereo partly drawn) | 55.9 | > 100 | 57.3 | > 100 | 38.9 | > 100 | > 100 | > 100 | > 100 | > 100 | > 100 | > 100 | > 100 | > 100 | > 100 | 6.82 | > 100 |  |  | 
8 | C=CCn1c(-c2ccc(-c3cs/c(=N\N=O)n3CC=C)cc2)cs/c1=N\N=O | 57.4 | > 100 | > 100 | > 100 | > 100 | > 100 | > 100 | > 100 | > 100 | > 100 | > 100 | > 100 | > 100 | > 100 | > 100 | > 100 | > 100 |  |  | 
9 | CC(C)(C)C1CCC2c3c([nH]c4ccccc34)C3C(=O)N(c4ccc5c(c4)C(=O)c4ccccc4C5=O)C(=O)C3C2C1 (stereo not drawn) | > 100 | > 100 | > 100 | > 100 | > 100 | > 100 | > 100 | > 100 | > 100 | > 100 | > 100 | > 100 | > 100 | > 100 | > 100 | > 100 | > 100 |  |  | 
10 | S=C1N=C(Cl)/C(=C\c2ccccc2)N1 | > 100 | > 100 | > 100 | > 100 | > 100 | > 100 | > 100 | > 31.6 | > 100 | > 100 | > 100 | > 100 | > 100 | > 100 | > 100 | > 100 | > 100 |  |  | 
